Results published in US20120082706A1, “MEDICAL DEVICE FOR DRUG DELIVERY” (TERUMO KABUSHIKI KAISHA, priority 2009, published 2012).

Test: Differential scanning calorimetry (DSC) of drug/compound mixtures (solid solution screening)
Type: physicochemical
Description: For the purpose of screening adequate solid dispersions, several exemplary mixtures were prepared, each composed of paclitaxel and a compound of different kind, and these mixtures underwent differential scanning calorimetry (DSC) using a differential scanning calorimeter.
The paclitaxel is a product of SIGMA Corp.
The thus prepared solution was completely freed of ethanol or acetone by vacuum drying. The resulting dry product was placed in an aluminum pan and thereafter underwent DSC in a nitrogen atmosphere at a heating rate of 10° C./min.
For the purpose of observing the properties of the solid solution of HSPC and a drug other than paclitaxel, there were prepared a mixture of HSPC and sirolimus and a mixture of HSPC and simvastatin, as shown in Table 5 below.

endothermic peak due to fusion of paclitaxel (DSC thermogram): gave an endothermic peak | Peak due to fusion of paclitaxel (DSC, nitrogen atmosphere, 10° C./min, 10 mg compound + 10 mg paclitaxel, dried from ethanol or acetone): Yes
Structure (SMILES): CC(=O)O[C@H]1C(=O)[C@@]2(C)[C@H]([C@H](OC(=O)c3ccccc3)[C@]3(O)C[C@H](OC(=O)[C@H](O)[C@@H](NC(=O)c4ccccc4)c4ccccc4)C(C)=C1C3(C)C)[C@]1(OC(C)=O)CO[C@@H]1C[C@@H]2O [Comparative Example 4, paclitaxel]
